Assay results taken from US20160206688A1, “METHODS FOR TREATING BACTEREMIA AND OSTEOMYELITIS USING ORITAVANCIN” (THE MEDICINES COMPANY, priority 2013, published 2016).
≈ marks a conversion by molar mass, not a printed value.

Experiments:
[1] = tested on: S. aureus; experiment: Broth microdilution MIC, European bacteraemia isolates 2010-2012; format: cell-based
Experimental: (§1) A total of 2,904 clinical strains responsible for documented bacteremia among unique hospitalized patients in 38 hospitals in 11 European Union countries. Israel, Russia, Turkey and Ukraine were included in this study (2010-2012). Isolates were submitted to a central monitoring laboratory (JMI Laboratories, North Liberty. Iowa. USA), following previously established protocols. Bacterial species identification was performed by using an automated system (Vitek®2; bioMèrieux, Hazelwood, Mo., USA) or conventional biochemical algorithms, as required.
(§2) Isolates were tested for susceptibility by broth microdilution methods following the Clinical and Laboratory Standards Institute (CLSI; M07-A9, 2012) document. Susceptibility testing was performed in cation-adjusted Mueller-Hinton broth (CA-MHB) using dry-form panels manufactured by Thermo Fisher Scientific, formerly TREK Diagnostics Systems/Sensititre (Cleveland. Ohio, USA). These panels provide results equivalent to the CLSI-approved broth microdilution method supplemented with 0.002% polysorbate-80.
(§3) Quality assurance was performed by concurrent testing of CLSI-recommended (M100-S23, 2013) strains: E. faecalis ATCC 29212 and S. aureus ATCC 29213. Interpretation of comparator MIC results was in accordance with published CLSI (M100-S23) and European Committee on Antimicrobial Susceptibility Testing (EUCAST, 2013) criteria.

[2] = tested on: MDR SA; experiment: Microdilution MIC against MDR SA by specimen source; format: cell-based, S. aureus
Experimental: 456 clinical, single-patient, non-consecutive, MDR SA isolates from the known specimen sources collected in 2011-2012 were analyzed. MDR was defined as resistant to ≧3 of the following: erythromycin, clindamycin, gentamicin, levofloxacin, and trimethoprim/sulfamethoxazole. 382 were MRSA and 74 were MSSA. MICs were determined by microdilution testing in accordance with CLSI M7 and M100 guidelines. Although other comparator drugs were tested, this analysis focuses on the activities of ORI, VAN, DAP, and LZD.

[3] = tested on: exponentially-growing S. aureus; conditions: within 15 minutes to 2 hours; MSSA, MRSA, and VRSA; cited from earlier work
[4] = tested on: E. faecalis; experiment: Broth microdilution MIC, European bacteraemia isolates 2010-2012; format: cell-based, Enterococcus faecalis
Experimental: as §1, §2, §3

[5] = tested on: S. agalactiae; experiment: Broth microdilution MIC, US isolates 2011-2012, blood vs non-blood; format: cell-based
Experimental: (§4) 527 E. faecalis, 176 E. faecium, and 790 BHS (335 S. pyogenes and 455 S. agalactiae) clinical, single patient, non-consecutive isolates were collected in 2011-2012 from 46 sites geographically distributed across the United States. The MICs were determined by broth microdilution testing performed in accordance with CLSI M7 and M100 guidelines. From the resulting database, this analysis focused on the activities of ORI, vancomycin (VAN), daptomycin (DAP), and linezolid (LZD) according to specimen source.

[6] = tested on: E. faecium; experiment: as above; format: cell-based
Experimental: as §4

[7] = tested on: S. pyogenes; experiment: as above; format: cell-based
Experimental: as §4

[8] = tested on: E. faecalis; experiment: as above; format: cell-based
Experimental: as §4

[9] = Staphylococcus aureus, Table 2, S. aureus Methicillin-resistant (1,708)
[10] = E. faecalis (445), at ≦0.008 mg/L
[11] = Enterococcus faecalis, read-out: cumulative % inhibited at MIC

In the case of `CN[C@H](CC(C)C)C(=O)N[C@H]1C(=O)N[C@@H](CC(N)=O)C(=O)N[C@H]2C(=O)N[C@H]3C(=O)N[C@H](C(=O)N[C@H](C(=O)O)c4cc(O)cc(O)c4-c4cc3ccc4O)[C@H](O[C@H]3C[C@](C)(N)[C@@H](O)[C@H](C)O3)c3ccc(c(Cl)c3)Oc3cc2cc(c3O[C@@H]2O[C@H](CO)[C@@H](O)[C@H](O)[C@H]2O[C@H]2C[C@](C)(NCc3ccc(-c4ccc(Cl)cc4)cc3)[C@@H](O)[C@H](C)O2)Oc2ccc(cc2Cl)[C@H]1O` [Oritavancin, N-(4-(4-chlorophenyl)benzyl)A82846B], the inhibition at 0.03 µg/mL ([1]; Staphylococcus aureus, read-out: cumulative % inhibited at MIC, S. aureus, Methicillin-resistant (372), at 0.03 mg/L) is reported as 72.9%, the inhibition at 0.06 µg/mL ([1]; Staphylococcus aureus, read-out: cumulative % inhibited at MIC, S. aureus, Methicillin-resistant (372), at 0.06 mg/L) is reported as 91.1% and the inhibition at 0.12 µg/mL ([1]; Staphylococcus aureus, read-out: cumulative % inhibited at MIC, S. aureus, Methicillin-resistant (372), at 0.12 mg/L) is reported as 98.4%. It also gave an inhibition at 0.25 µg/mL ([1]; Staphylococcus aureus, read-out: cumulative % inhibited at MIC, S. aureus, Methicillin-resistant (372), at 0.25 mg/L) of 100%, an MIC50 [1, 9] of 0.03 µg/mL (≈ 0.0167 µM) and an MIC90 [1, 9] of 0.06 µg/mL (≈ 0.0335 µM). The “MIC Range” value ([1]; Table 2, S. aureus Methicillin-resistant (1,708)) was “≦0.008-0.25 mg/L”, the MIC50 ([2]; Blood, n = 108) was 0.03 µg/mL (≈ 0.0167 µM) and the MIC90 ([2]; Blood, n = 108) was 0.12 µg/mL (≈ 0.0669 µM). For the same compound, the Mode (MIC) ([2]; Blood, n = 108) was 0.03 µg/mL, the “Range (MIC)” value ([2]; Blood, n = 108, in µg/mL) was 0.015-0.25 and the MIC50 ([2]; Respiratory, N = 157) was 0.03 µg/mL (≈ 0.0167 µM). For the same compound, the MIC90 ([2]; Respiratory, N = 157) was 0.06 µg/mL (≈ 0.0335 µM), the Mode (MIC) ([2]; Respiratory, N = 157) was 0.03 µg/mL and the “Range (MIC)” value ([2]; Respiratory, N = 157, in µg/mL) was 0.008-0.25. The MIC50 ([2]; Skin/Wound, N = 191) was 0.03 µg/mL (≈ 0.0167 µM), the MIC90 ([2]; Skin/Wound, N = 191) was 0.06 µg/mL (≈ 0.0335 µM) and the Mode (MIC) ([2]; Skin/Wound, N = 191) was 0.03 µg/mL. For the same compound, the “Range (MIC)” value ([2]; Skin/Wound, N = 191) was “≦0.002-0.25”, the “reduction (bactericidal activity)” value [3] was no less than 3 log and the “Number inhibited at MIC” value ([4]; E. faecalis (445), at 0.015 mg/L) was 204. For the same compound, the “Number inhibited at MIC” value ([4]; E. faecalis (445), at 0.03 mg/L) was 89, the “Number inhibited at MIC” value ([4]; E. faecalis (445), at 0.06 mg/L) was 30 and the “Number inhibited at MIC” value ([4]; E. faecalis (445), at 0.12 mg/L) was 13. For the same compound, the “Number inhibited at MIC” value ([4]; E. faecalis (445), at 0.25 mg/L) was 4, the “Number inhibited at MIC” value ([4]; E. faecalis (445), at 0.5 mg/L) was 1 and the “Number inhibited at MIC” value [4, 10] was 104. For the same compound, the “cumulative % inhibited at MIC” value [4, 10] was 23.4%, the MIC50 ([4]; Enterococcus faecalis) was 0.015 µg/mL (≈ 0.00837 µM) and the MIC90 ([4]; Enterococcus faecalis) was 0.06 µg/mL (≈ 0.0335 µM). The MIC ([4]; Enterococcus faecalis, read-out: MIC values) was 0.12 to 0.5 µg/mL (≈ 0.0669 to 0.279 µM), the inhibition at 0.015 µg/mL [4, 11] was 69.2% and the inhibition at 0.03 µg/mL [4, 11] was 89.2%. The inhibition at 0.06 µg/mL [4, 11] was 96%, the inhibition at 0.12 µg/mL [4, 11] was 98.9% and the inhibition at 0.25 µg/mL [4, 11] was 99.8%. For the same compound, the inhibition at 0.5 µg/mL [4, 11] was 100%, the “MIC 50%” value ([4]; Table 1, E. faecalis (445)) was 0.015 µg/mL (≈ 0.00837 µM) and the “MIC 90%” value ([4]; Table 1, E. faecalis (445)) was 0.06 µg/mL (≈ 0.0335 µM). The “MIC Range” value ([4]; Table 2, E. faecalis (445), includes four VanA-phenotype strains) was “≦0.008-0.5 mg/L”, the “concentration inhibiting all strains” value ([4]; all E. faecalis, including resistant subsets) was no more than 0.5 mg/L and the MIC90 ([5]; Blood, N 100) was 0.25 µg/mL (≈ 0.139 µM). For the same compound, the MIC90 ([5]; Non-Blood, N 355) was 0.25 µg/mL (≈ 0.139 µM), the MIC90 ([6]; Blood, N 84) was 0.12 µg/mL (≈ 0.0669 µM) and the MIC90 ([6]; Non-Blood, N 92) was 0.12 µg/mL (≈ 0.0669 µM). It also gave an MIC90 ([7]; Blood, N 53) of 0.25 µg/mL (≈ 0.139 µM), an MIC90 ([7]; Non-Blood, N 282) of 0.25 µg/mL (≈ 0.139 µM) and an MIC90 ([8]; Blood, N 116) of 0.06 µg/mL (≈ 0.0335 µM). The MIC90 ([8]; Non-Blood, N 411) was 0.06 µg/mL (≈ 0.0335 µM).
